Data: patent US10857155B2, “Compounds targeting proteins, compositions, methods, and uses thereof” (BioTheryX, Inc., priority 2017, dated 2020)

Legend:
Assay type in all cases: cell-based
IL-1β = assay: IL-1 beta in LPS-induced PBMCs / CD14+ monocytes, Meso Scale assay
Experimental: (§1) FIG. 2 represents the activity against IL-1-beta in CD14 monocytes, plated in 96 well plates and pretreated with Compounds 1, 2, or 3, or pomalidomide, for 1 h and then induced with 100 ng/mL LPS for 18-24 h. Cytokines were measured according to MesoScale protocol. Negative control wells were treated with DMSO. Compound activity was measured as a percentage of LPS-induced activity.
(§2) Either frozen primary blood mononuclear cells (PBMCs) or frozen CD14+ mobilized peripheral blood monocytes were purchased from AllCells (PB003F, Normal Peripheral Blood MNC (Alameda, Calif.)). Cells were quick thawed, washed 1-time with RPMI-1640 (10% FBS/1% Pen-Strep) and plated in 96 well plates at 200,000 cells per well. Cells were pretreated with DMSO only, pomalidomide or the indicated compounds for 1 h and then induced with 100 ng/mL lipopolysaccharide (LPS) for 18-24 h. The supernatant was analyzed for IL-1 beta, IL-6, and TNF-alpha, using Meso Scale assay according to manufacturer's protocol. The negative control wells were treated with DMSO.
(§3) Compound activity is measured as fold difference from the DMSO control. Compounds 1, 2, and 3 each reduced expression of IL-1-b in LPS-stimulated PBMCs by over 80% at 1 uM, relative to a just under 80% reduction with pomalidomide at 10 μM (FIG. 2).

IL-6 = IL-6 in LPS-induced PBMCs / CD14+ monocytes, Meso Scale assay
Experimental: as §1, with “FIG. 3” for “FIG. 2”, “against IL-6” for “against IL-1-beta”, “in CD14,” for “in CD14”, “DMSO. Cells were treated with compound (at the indicated concentrations) or 10 μM pomalidomide.” for “DMSO.”
as §2, §3

TNF-α = assay: TNF-alpha in LPS-induced PBMCs / CD14+ monocytes, Meso Scale assay
Experimental: as §1, with “FIG. 4” for “FIG. 2”, “against TNF-alpha” for “against IL-1-beta”, “in CD14,” for “in CD14”, “protocol. The negative” for “protocol. Negative”, “DMSO. Cells were treated with compound (at the indicated concentrations) or 10 μM pomalidomide.” for “DMSO.”
as §2, §3

IL-2 = IL-2 in PBMCs on anti-human CD3 (OKT3) coated plates, Mesoscale analysis; settings: PBMC, 24 h, relative to DMSO control, read-out: Fold Change IL-2
Experimental: For the IL-2 analysis, 96 well plates were precoated with 1 μg/mL anti-human CD3 antibody (OKT3, eBioscience Inc., San Diego, Calif.). After washing with PBS, compounds were added (50 μL/well) followed by PBMCs diluted at 3-4 million cells/mL (150 μL/well). Plates were incubated for 24 h and the supernatants collected for Mesoscale IL-2 analysis.
as §3

Molm-13 cells = assay: Cell viability assay (CellTiter-Glo), Molm-13 cells; settings: Homo sapiens, 72 h, 3 days; for viability at 10 µM: MOLM-13, 10 μM; for viability at 0.5 µM: MOLM-13, 0.5 μM
Experimental: FIG. 5 represents antiproliferative activity in Molm-13 cells. The cells were incubated with Compound 1, 2, or 3 (at the indicated concentration), DMSO, or pomalidomide. Compound activity was measured based on the signal from remaining viable cells.
(§4) Molm-13 cells were cultivated in RPMI-1640 (10% FBS/1% pen-strep) and were plated in white walled 96-well plates at 20,000 cells/well. H1048 cells were cultured in DMEM:F12 media supplemented with 5% fetal bovine serum, insulin, transferrin, sodium selenite, hydrocortisone, estradiol, penicillin and streptomycin, and were plated in white walled 96-well plates at 20,000 cells/well.
(§5) Cells were treated with compound at the indicated concentration or DMSO (control) and the cultures were incubated for 3 days at 37° C. and 5% CO2. Following the incubation period, 100 μL of CellTiterGlow (CTG) reagent (CellTiter-Glo® Luminescent Cell Viability Assay, Promega (Madison, Wis.)) was added to each well. Following a 10 min incubation with shaking, luminescence was measured using a Victor Wallac Luminometer.

H1048 cells = assay: Cell viability assay (CellTiter-Glo), H1048 cells; settings: Homo sapiens, NCI-H1048, 72 h, 3 days; for viability at 1 µM: H1048, 1 μM; for viability at 10 µM: H1048, 10 μM
Experimental: as §4, §5

GSPT1 = molecular target: T1, GSPT1 (Homo sapiens, UniProt P15170); assay: Western blot analysis of GSPT1 protein levels in Jurkat cells; settings: DMSO = 100.00; for GSPT1 protein level (% of DMSO control) at 0.1 µM: 100 nM compound; for GSPT1 protein level (% of DMSO control) at 1 µM: 1 uM compound
T1 construct: Whole cell extract was prepared with RIPA buffer according to manufacturer's protocol; endogenous in cells; host or cells: Jurkat cells
Experimental: FIG. 1 represents the activity against CK1α, ikaros, and GPST1 in Jurkat cells, plated in 96 well plates. Cells were pretreated with compounds for 4 h and then lysed and protein levels measure via Western blots. The negative control wells were treated with DMSO. Cells were treated with the indicated compound at the indicated concentration. Compound activity is measured as a decrease in GSPT1 protein levels.
Western Blot Protocol: Cell lines were grown in RPMI 1640 supplemented with streptomycin, penicillin and 10% fetal bovine serum.
Jurkat cells were cultured at approximately 10^6 cells per mL, DMSO or the indicated compound was added to the cells and allowed to incubate for 6-8 h. Whole cell extract was prepared with RIPA buffer according to manufacturer's protocol (Pierce (Dallas, Tex.)). Briefly, ˜2×10^6 cells were washed once in PBS, the cell pellet was resuspended in RIPA buffer and allowed to incubate for 15 min on ice. Cell debris was removed by centrifugation and the cleared whole cell lysate was transferred to a new tube for further analysis.
For western blot analysis, whole cell extracts were separated on 4-12% SDS-polyacrylamide gels, transferred to nitrocellulose and probed with the indicated primary antibodies. Membranes were subsequently washed and probed with the appropriate horseradish peroxidase (HRP)-conjugated secondary antibody. Membranes were subsequently washed and probed with the appropriate IRDye secondary antibodies (LI-COR). The signal was detected using the Odyssey Imaging System (LI-COR).

T1 sequence (P15170 whole entry): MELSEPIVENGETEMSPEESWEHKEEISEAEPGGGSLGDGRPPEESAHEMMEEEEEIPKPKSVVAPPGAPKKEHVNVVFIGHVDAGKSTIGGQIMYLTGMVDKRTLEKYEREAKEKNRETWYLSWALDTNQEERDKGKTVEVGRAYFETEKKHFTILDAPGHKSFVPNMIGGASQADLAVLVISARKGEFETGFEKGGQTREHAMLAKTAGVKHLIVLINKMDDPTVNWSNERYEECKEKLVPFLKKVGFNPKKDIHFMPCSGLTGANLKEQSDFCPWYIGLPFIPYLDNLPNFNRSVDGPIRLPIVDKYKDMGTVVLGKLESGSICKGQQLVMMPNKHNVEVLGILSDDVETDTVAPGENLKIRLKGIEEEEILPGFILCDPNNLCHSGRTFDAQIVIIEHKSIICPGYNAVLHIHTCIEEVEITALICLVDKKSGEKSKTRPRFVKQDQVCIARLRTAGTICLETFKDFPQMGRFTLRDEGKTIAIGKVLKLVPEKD

Row | SMILES | inhibition at 1 µM (IL-1β) [%] | inhibition at 1 µM (IL-6) [%] | inhibition at 1 µM (TNF-α) [%] | fold induction at 1 µM (IL-2) | viability at 10 µM (Molm-13 cells) [%] | viability at 1 µM (H1048 cells) [%] | viability at 10 µM (H1048 cells) [%] | GSPT1 protein level (% of DMSO control) at 0.1 µM (GSPT1) [%] | GSPT1 protein level (% of DMSO control) at 1 µM (GSPT1) [%] | inhibition at 0.1 µM (IL-1β) [%] | inhibition at 0.1 µM (IL-6) [%] | inhibition at 0.1 µM (TNF-α) [%] | fold induction at 0.1 µM (IL-2) | viability at 0.5 µM (Molm-13 cells) [%] | viability at 1 µM (Molm-13 cells; MOLM-13, 1 μM) [%]
1 | O=C(Cc1ccc(C(F)(F)F)c(Cl)c1)NCc1ccc2c(c1)CN([C@H]1CCCC(=O)NC1=O)C2=O [Compound 10, (S)-2-(3-chloro-4-(trifluoromethyl)phenyl)-N-((2-(2,7-dioxoazepan-3-yl)-1-oxoisoindolin-5-yl)methyl)acetamide] | 68 | 67 | 67 | 1.5 | 96 | 82.1 | 21.5 | 83.3 | 49.3 | – | – | – | – | – | –
2 | Cc1ccc(CC(=O)NCc2ccc3c(c2)CN([C@H]2CCCC(=O)NC2=O)C3=O)cc1CN1CCOCC1 [Compound 11, (S)—N-((2-(2,7-dioxoazepan-3-yl)-1-oxoisoindolin-5-yl)methyl)-2-(4-methyl-3-(morpholinomethyl)phenyl)acetamide] | 0 | 5 | 12 | 0.6 | 99 | 70.8 | 11.6 | 137 | 56 | – | – | – | – | – | –
3 | COc1ccc(CC(=O)NCc2ccc3c(c2)CN([C@H]2CCCC(=O)NC2=O)C3=O)cc1Cl [Compound 13, (S)-2-(3-chloro-4-methoxyphenyl)-N-((2-(2,7-dioxoazepan-3-yl)-1-oxoisoindolin-5-yl)methyl)acetamide] | 77 | 85 | 53 | 2.6 | 84 | 97.8 | 44.2 | 95.9 | 46.2 | – | – | – | – | – | –
4 | O=C(Cc1cccc(CN2CCOCC2)c1)NCc1ccc2c(c1)CN([C@H]1CCCC(=O)NC1=O)C2=O [Compound 14, (S)—N-((2-(2,7-dioxoazepan-3-yl)-1-oxoisoindolin-5-yl)methyl)-2-(3-(morpholinomethyl)phenyl)acetamide] | – | – | – | – | 28 | 101 | 56.2 | 145 | 82.8 | 0 | 0 | 0 | 0.9 | – | –
5 | O=C(Cc1ccc(Cl)c(CN2CCOCC2)c1)NCc1ccc2c(c1)CN([C@H]1CCCC(=O)NC1=O)C2=O [Compound 15, (S)-2-(4-chloro-3-(morpholinomethyl)phenyl)-N-((2-(2,7-dioxoazepan-3-yl)-1-oxoisoindolin-5-yl)methyl)acetamide] | – | – | – | – | 84 | 93.3 | 35 | 167 | 111 | 0 | 0 | 0 | 1 | – | –
6 | Cc1ccc(NC(=O)NCc2ccc3c(c2C)CN([C@H]2CCCC(=O)NC2=O)C3=O)cc1Cl [Compound 16, (S)-1-(3-chloro-4-methylphenyl)-3-((2-(2,7-dioxoazepan-3-yl)-4-methyl-1-oxoisoindolin-5-yl)methyl)urea] | – | – | – | – | – | 7.66 | 3.93 | 59.4 | 39.3 | 72 | 72 | 78 | 1.7 | 70 | –
7 | Cc1ccc(NC(=O)NCc2cccc3c2CN([C@H]2CCCC(=O)NC2=O)C3=O)cc1Cl [Compound 17, (S)-1-(3-chloro-4-methylphenyl)-3-((2-(2,7-dioxoazepan-3-yl)-1-oxoisoindolin-4-yl)methyl)urea] | – | – | – | – | 91 | 95.5 | 34.9 | 131 | 80.5 | 19 | 0 | 18 | 1.3 | – | –
8 | Cc1ccc(CNC(=O)NCc2ccc3c(c2)CN([C@H]2CCCC(=O)NC2=O)C3=O)cc1Cl [Compound 18, (S)-1-(3-chloro-4-methylbenzyl)-3-((2-(2,7-dioxoazepan-3-yl)-1-oxoisoindolin-5-yl)methyl)urea] | – | – | – | – | – | 14.2 | 4.28 | 69.7 | 20.2 | 53 | 41 | 48 | 1.5 | 68 | –
9 | Cc1ccc(CCNC(=O)NCc2ccc3c(c2)CN([C@H]2CCCC(=O)NC2=O)C3=O)cc1Cl [Compound 19, (S)-1-(3-chloro-4-methylphenethyl)-3-((2-(2,7-dioxoazepan-3-v)-1-oxoisoindolin-5-yl)methyl)urea] | – | – | – | – | – | 8.26 | 3.09 | – | 26.8 | 37 | 17 | 33 | 1.2 | – | 79
10 | Cc1ccc(CNC(=O)NCc2cccc3c2CN([C@H]2CCCC(=O)NC2=O)C3=O)cc1Cl [Compound 20, (S)-1-(3-chloro-4-methylbenzyl)-3-((2-(2,7-dioxoazepan-3-yl)-1-oxoisoindolin-4-yl)methyl)urea] | – | – | – | – | 23 | 98.5 | 96.2 | 126 | 160 | 12 | 7 | 11 | 1.1 | – | –
